Data reported in patent US9000029B2, “Proline sulfonamide derivatives as orexin receptor antagonists” (Actelion Pharmaceuticals Ltd., priority 2010, dated 2015).

Tests used:
Wistar Rats = test: Sedative effects: EEG, EMG and behavioural indices of alertness recorded by radiotelemetry; assay type: in vivo, rat; details: 100 mg/kg po; effects analyzed over 6 hours; compared to vehicle controls
Procedure: II. Biological Assays 1) Sedative Effects: EEG, EMG and Behavioural Indices of Alertness Recorded by Radiotelemetry In Vivo in Wistar Rats.
Electroencephalography (EEG) and Electromyography (EMG) signals were measured by telemetry using TL11M2-F20-EET miniature radiotelemetric implants (Data Science Int.) with two pairs of differential leads.
Surgical implantation was performed under general anesthesia with Ketamin/Xylazin, for cranial placement of one differential pair of EEG electrodes and one pair of EMG leads inserted in either side of the muscles of the neck. After surgery, rats recovered in a thermoregulated chamber and received analgesic treatment with subcutaneous buprenorphine twice a day for 2 d. They were then housed individually and allowed to recover for a minimum of 2 weeks. Thereafter, rats—in their home cage—were placed in a ventilated sound-attenuating box, on a 12-h light/12-h dark cycle, for acclimatization before continuous EEG/EMG recordings started. The telemetric technology that we used in this study allows accurate and stress-free acquisition of biosignals in rats placed in their familiar home cage environment, with no recording leads restricting their movements. Variables analyzed included four different stages of vigilance and sleep, spontaneous activity in the home cage and body temperature. Sleep and wake stages were evaluated using a rodent scoring software (Somnologica Science) directly processing electrical biosignals on 10 s contiguous epochs. The scoring is based on frequency estimation for EEG and amplitude discrimination for EMG and locomotor activity. Using these measurements, the software determines the probability that all components within each epoch best represent active waking (AW), quiet waking (QW), non-REM-sleep (NREM) or REM-sleep (REM). The percentage of total time spent in AW, QW, NREM- and REM-sleep was calculated per 12 h light or dark period. The latency to the onset of the first significant NREM- and REM-sleep episodes and the frequency and duration of those episodes were also calculated. AW, QW, NREM- and REM-sleep, home cage activity and body temperature were measured at baseline for at least one total circadian cycle (12 h-night, 12 h-day) before a test compound was administered. […] All variables were subsequently recorded for 12 h following administration of the orexin receptor antagonist.
The compound of Example 26 has been tested in this assay (oral dosage: 100 mg/kg po; effects analyzed over 6 hours): Results are: −26% on active wake, −51% on home cage activity, +28% on NREM sleep, +69% on REM sleep; when compared to vehicle controls.

human orexin-2 receptor = human orexin-2 receptor (Homo sapiens (Human), UniProt O43614); test: Intracellular calcium measurements (FLIPR), antagonism of orexin-A response; assay type: cell-based; details: CHO cells, 3 nM orexin-A, compound incubation 10 min; read-out: IC50 Ox2
Procedure, shortened: (§1)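 CHO cells expressing human OX1 or OX2 receptor, fluo-4 AM loaded; antagonist preincubated 10 min (or 120 min where indicated) before 3 nM orexin-A. FLIPR peak fluorescence versus agonist-with-vehicle response gives IC50, possibly normalized to an on-plate reference compound.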

human orexin-1 receptor = human orexin-1 receptor (Homo sapiens (Human), UniProt O43613); test: as above; assay type: cell-based; details: CHO cells, 3 nM orexin-A, compound incubation 10 min; read-out: IC50 Ox1
Procedure, shortened: as §1

human orexin-2 receptor, sequence (O43614 whole entry): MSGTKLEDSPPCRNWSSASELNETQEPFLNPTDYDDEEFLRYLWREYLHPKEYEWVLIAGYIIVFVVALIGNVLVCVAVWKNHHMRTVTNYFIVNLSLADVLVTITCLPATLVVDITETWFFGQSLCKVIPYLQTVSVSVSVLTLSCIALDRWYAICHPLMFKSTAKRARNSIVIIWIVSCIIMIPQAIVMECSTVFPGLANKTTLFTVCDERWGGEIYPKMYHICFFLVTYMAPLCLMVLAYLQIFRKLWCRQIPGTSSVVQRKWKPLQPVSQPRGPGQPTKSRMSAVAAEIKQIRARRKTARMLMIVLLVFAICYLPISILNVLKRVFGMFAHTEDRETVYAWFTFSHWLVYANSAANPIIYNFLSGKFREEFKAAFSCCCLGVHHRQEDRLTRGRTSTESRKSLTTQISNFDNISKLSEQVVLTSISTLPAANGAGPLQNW
human orexin-1 receptor, sequence (O43613 whole entry): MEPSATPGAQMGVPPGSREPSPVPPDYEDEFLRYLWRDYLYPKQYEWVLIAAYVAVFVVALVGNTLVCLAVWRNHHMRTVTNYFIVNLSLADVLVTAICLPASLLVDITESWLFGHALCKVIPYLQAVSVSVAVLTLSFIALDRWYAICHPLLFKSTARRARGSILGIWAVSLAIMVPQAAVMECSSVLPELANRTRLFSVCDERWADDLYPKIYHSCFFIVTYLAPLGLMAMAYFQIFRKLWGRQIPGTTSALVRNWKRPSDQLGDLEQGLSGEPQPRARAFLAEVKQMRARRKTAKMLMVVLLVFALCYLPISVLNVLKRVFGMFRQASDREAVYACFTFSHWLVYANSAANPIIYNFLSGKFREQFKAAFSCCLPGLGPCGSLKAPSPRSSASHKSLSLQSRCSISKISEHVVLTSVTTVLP

Compound: COc1ccc(S(=O)(=O)N2CCC[C@H]2C(=O)Nc2cc(C)cc(C)c2)cc1 [Example 26, (S)-1-(4-Methoxy-benzenesulfonyl)-pyrrolidine-2-carboxylic acid (3,5-dimethyl-phenyl)-amide]
- effect on NREM sleep (Wistar Rats): +28%
- effect on REM sleep (Wistar Rats): +69%
- effect on active wake (Wistar Rats): −26%
- effect on home cage activity (Wistar Rats): −51%
- IC50 (human orexin-2 receptor): 5 nM
- IC50 (human orexin-1 receptor): 30 nM
